Like-named read-outs stand apart in the source and are kept apart here.
Experiments:
STAT3 = settings: in some settings; read-out: STAT3 inhibition IC50; cited from earlier work
STAT3-SH2 domain [1] = biological target: T1, STAT3-SH2 domain (Homo sapiens, UniProt P40763); experiment: STAT AlphaScreen-based assay (STAT3); type: binding; settings: for IC50 / inhibition at 30 µM: AlphaScreen assay; for IC50: read-out: STAT3 IC50 ±SD; for inhibition at 30 µM: read-out: STAT3 % inhibition ± SD at 30 μM
T1 sequence (P40763 whole entry, the tested form may be a part): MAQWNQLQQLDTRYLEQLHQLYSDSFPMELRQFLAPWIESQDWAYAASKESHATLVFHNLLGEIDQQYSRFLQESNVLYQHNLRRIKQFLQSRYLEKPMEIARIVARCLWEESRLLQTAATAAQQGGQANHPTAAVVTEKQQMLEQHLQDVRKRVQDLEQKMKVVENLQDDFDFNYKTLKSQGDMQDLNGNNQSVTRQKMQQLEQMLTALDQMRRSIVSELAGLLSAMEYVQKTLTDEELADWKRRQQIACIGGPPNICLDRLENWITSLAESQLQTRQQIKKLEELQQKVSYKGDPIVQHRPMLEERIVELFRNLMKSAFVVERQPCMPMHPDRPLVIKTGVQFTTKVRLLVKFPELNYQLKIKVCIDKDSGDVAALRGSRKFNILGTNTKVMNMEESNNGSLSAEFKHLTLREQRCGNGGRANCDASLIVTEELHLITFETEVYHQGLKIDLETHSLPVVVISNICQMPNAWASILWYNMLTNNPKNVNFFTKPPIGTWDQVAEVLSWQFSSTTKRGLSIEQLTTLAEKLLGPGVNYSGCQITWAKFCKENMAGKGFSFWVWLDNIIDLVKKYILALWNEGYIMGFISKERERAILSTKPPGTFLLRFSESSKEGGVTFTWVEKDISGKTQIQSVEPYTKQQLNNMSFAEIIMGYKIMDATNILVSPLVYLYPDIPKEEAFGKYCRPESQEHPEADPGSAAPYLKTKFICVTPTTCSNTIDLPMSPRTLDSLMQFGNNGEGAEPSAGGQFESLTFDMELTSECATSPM

SH2-domain of STAT1 = biological target: T2, SH2-domain of STAT1 (Homo sapiens, UniProt P42224); experiment: STAT AlphaScreen-based assay (STAT1 selectivity); type: binding; settings: for inhibition at 30 µM: read-out: STAT1 % inhibition ± SD at 30 μM, 30 μM; for IC50: read-out: STAT1 IC50 ±SD
T2 sequence (P42224 1-750): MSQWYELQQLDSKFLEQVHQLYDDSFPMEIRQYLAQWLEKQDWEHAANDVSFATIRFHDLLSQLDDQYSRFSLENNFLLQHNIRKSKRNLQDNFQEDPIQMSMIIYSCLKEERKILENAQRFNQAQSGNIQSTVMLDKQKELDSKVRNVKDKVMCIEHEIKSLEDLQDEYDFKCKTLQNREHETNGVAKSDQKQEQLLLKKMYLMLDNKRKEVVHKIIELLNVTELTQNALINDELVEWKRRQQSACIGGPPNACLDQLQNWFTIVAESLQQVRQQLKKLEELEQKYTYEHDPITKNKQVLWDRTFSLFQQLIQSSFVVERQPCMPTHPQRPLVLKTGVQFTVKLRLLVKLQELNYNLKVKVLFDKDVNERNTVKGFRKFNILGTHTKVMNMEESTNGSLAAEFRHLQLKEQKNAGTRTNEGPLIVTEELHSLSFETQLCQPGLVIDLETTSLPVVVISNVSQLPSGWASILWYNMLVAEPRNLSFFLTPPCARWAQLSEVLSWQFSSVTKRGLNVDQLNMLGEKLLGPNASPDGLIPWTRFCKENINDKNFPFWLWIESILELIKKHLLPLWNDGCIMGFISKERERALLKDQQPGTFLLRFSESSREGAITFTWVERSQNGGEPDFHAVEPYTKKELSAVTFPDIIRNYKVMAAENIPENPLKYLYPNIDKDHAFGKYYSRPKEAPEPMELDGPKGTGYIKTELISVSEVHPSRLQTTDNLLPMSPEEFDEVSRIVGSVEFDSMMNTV
Protocol: STAT3 inhibitory activity of the described compounds was tested by the AlphaScreen-based assay to evaluate the potential inhibition of the interaction between STAT3-SH2 domain and pTyr-containing peptides according to the previously reported procedure. For the most interesting compounds, selectivity tests versus STAT1 were performed.
The new sulfurated-drug hybrids, together with their parent compounds have been submitted to the AlphaScreen-based assay, to investigate their ability to bind STAT3 directly, through the evaluation of the inhibition of the binding of SH2-containing proteins to their correspondent phosphopeptides, the physiological ligands. […] Since AlphaScreen is a cell-free assay, not always there is a correspondence between the potency of STAT3 inhibition and cytotoxicity, probably due to not optimal physicochemical properties of the tested compounds, such as solubility and chemical stability in the culture medium and cell permeation.

HCT-116 cells = experiment: MTT assay, cytotoxicity on HCT-116; type: cell-based, human; settings: for IC50 at 48 h: human, HCT-116 cells; for IC50 at 48 h / IC50: MTT assay, NA = not active up to 100 μM, read-out: Cytotoxicity (HCT-116) IC50 ±SD, 48 h
Protocol: Following the same protocol used for previous cytotoxicity assays by N. Ferri[55], cells were seeded in 48-well plate (40.000 cells/well) and, after 24 h, they were incubated with different concentrations of our compounds for 48 h.
The determination of the conversion of MTT (3-(4,5-dimethyl-2-thiazolyl)-2,5-diphenyl-2H-tetrazolium bromide) to formazan was determined by using a commercially available kit (Millipore, Billerica, MA), according to the manufacturer’s instructions.

[2] = system: STAT3 reporter activity in HeLa cells; experiment: STAT3 luciferase reporter gene assay; type: cell-based; settings: Homo sapiens, 2 h pretreatment, oncostatin M 10 ng/ml 4 h, read-out: STAT3 reporter assay (HeLa) IC50 ±SD
Protocol: STAT3 reporter HeLa stable cell lines (Signosis Inc, Santa Clara, CA) were incubated in a 96-well microplate for 24 h. Cells were pretreated with test compounds for 2 h, and 10 ng/ml (w/v) of oncostatin M were applied and incubated for 4 h. Cells were washed with medium not supplemented with phenol red, and Steady-Glo® reagent (Promega, Madison, WI) was applied. After 15 min incubation, the signals were detected by ARVO Light 1420 (PerkinElmer Life Sciences, Waltham, MA). The relative signal intensity was calculated in each well as the ratio for the mean signal of vehicle.

[3] = system: NF-κB promoter activity in HCT-116 cells; experiment: Luciferase reported NF-κB promoter activity assay; type: cell-based; settings: Homo sapiens, 2 h pre-treatment, TNF-α 10 ng/ml, NA = not active up to 100 μM, read-out: NF-κB promoter assay (HCT-116) IC50 ±SD
Protocol: To measure the NF-κB promoter activity, HCT-116 cells were seeded in 100 mm dish and transiently transfected with 6 μg of DNA (NF-κB plasmid, containing luciferase reporter gene[57] with turbofect reagent (Carlo Erba Reagents). After 24 h, cells were seeded in 48-well plates (40.000 cells per well). On the next day, cells were incubated with our compounds for 2 h (pre-treatment) and then TNF-α was added in every well at (10 ng/ml). After 5–6 h, luciferase activity was measured by using Neolite reagent (PerkinElmer Life Sciences, Waltham, MA) according to the manufacturer’s instructions.

[4] = system: lymphocytic leukemia P388; parameters: method as in PMID 8003178; settings: injected i.p. in mice, 24 h after the tumor implants; data from National Cancer Institute; cited from earlier work
[5] = system: human smooth muscle cells (hSMC); experiment: Cytotoxicity versus normal human smooth muscle cells; type: cell-based
[6] = system: MCF-7 (hormone sensitive breast cancer) cells; experiment: Cytotoxicity against MCF-7 cells; type: cell-based; settings: in comparison to HCT-116
[7] = system: different tumoral cell lines; parameters: method as in PMID 18266964, PMID 22212895; settings: cited from earlier work
STAT3-SH2 domain [8] = biological target: T1, STAT3-SH2 domain; parameters: method as in PMID 28097912; settings: maximum tested concentration 30 μM; read-out: STAT3-SH2 domain binding IC50 (AlphaScreen), previously described hybrids; cited from earlier work
[9] = system: PC3 subcutaneous xenografts; parameters: method as in PMID 18266964; settings: in vivo; cited from earlier work

SMILES | IC50 (STAT3) | IC50 (STAT3-SH2 domain [1]) | inhibition at 30 µM (SH2-domain of STAT1) | IC50 (SH2-domain of STAT1) | IC50 at 48 h (HCT-116 cells) | IC50 [2] | inhibition at 30 µM (STAT3-SH2 domain [1]) | melting point | IC50 [3] | IC50 (HCT-116 cells) | activity against lymphocytic leukemia P388 [4] | fold increase of inhibitory potency on STAT3 (STAT3-SH2 domain [1]; in comparison to rosmaricine) | fold increase of antiproliferative activity (HCT-116 cells; HCT-116, in comparison to rosmaricine) | selectivity index (hSMC versus HCT-116) [5] | IC50 ([5]; Homo sapiens, HSMC) | cytotoxicity against MCF-7 cells [6] | in vitro antiproliferative activity [7] | IC50 (STAT3-SH2 domain [8]) | growth of PC3 in subcutaneous xenografts [9]
O=C(O)/C=C/c1ccc(O)c(O)c1 [Compound 19, caffeic acid, reference compound] | 70 to 100 µM | > 30 µM | – | – | – | – | – | – | – | – | – | – | – | – | – | – | – | – | –
CS(=O)(=O)SCCOC(=O)/C=C/c1ccc(O)c(O)c1 [Compound 21, (E)-2-(methylsulfonylthio)ethyl 3-(3,4-dihydroxyphenyl)acrylate] | – | 0.8 ± 0.2 µM | 85.7 ± 4.3% | 17 ± 1.2 µM | 123 ± 17.3 µM | 60.6 ± 2.8 µM | 100.1 ± 0.1% | 133.1 to 134.8 °C | 128 ± 8.9 µM | – | – | – | – | – | – | – | – | – | –
C=CCSSCCOC(=O)/C=C/c1ccc(O)c(O)c1 [Compound 23, (E)-2-(allyldisulfanyl)ethyl 3-(3,4-dihydroxyphenyl)acrylate] | – | 5.5 ± 0.2 µM | 37.7 ± 7.5% | > 30 µM | 73 ± 8 µM | 94.4 ± 26.1 µM | 70 ± 1.7% | – | 163 ± 11.1 µM | – | – | – | – | – | – | – | – | – | –
O=C(/C=C/c1ccc(O)c(O)c1)Oc1ccc(-c2cc(=S)ss2)cc1 [Compound 24, (E)-4-(3-thioxo-3H-1,2-dithiol-5-yl)phenyl 3-(3,4-dihydroxyphenyl)acrylate] | – | 13.2 ± 0.9 µM | 21.5 ± 1.8% | > 30 µM | 46.7 µM | 40 ± 1.5 µM | 66.7 ± 0.5% | 199.5 to 201.5 °C | 40.6 ± 3 µM | 46.7 ± 4.1 µM | – | – | – | – | – | – | – | – | –
CC(C)c1cc2c(c(O)c1O)C13CCCC(C)(C)C1C(OC3=O)C2N (centres unmarked) [Compound 30, rosmaricine] | – | 1.9 ± 0.1 µM | 91.8% | 10 ± 0.6 µM | 65 µM | 42.4 ± 2.4 µM | 99.7% | 198.2 to 202.5 °C | 43.4 ± 6.9 µM | 65.2 ± 2.3 µM | inactive or endowed with borderline activity | – | – | – | – | – | – | – | –
CC(C)c1cc2c(c(O)c1O)C13CCCC(C)(C)C1C(OC3=O)C2NC(=O)CCCCSS(C)(=O)=O (centres unmarked) [Compound 31, N-[5-(methylsulfonyl)thiopentanoyl]rosmaricine] | – | 0.2 µM | 99.9 ± 0.3% | 2.8 ± 0.1 µM | 73.8 ± 0.9 µM | > 100 µM | 100.1 ± 0.1% | 121.1 to 124.2 °C (dec.) | 53.3 ± 10.9 µM | – | – | 10 fold | – | – | – | – | – | – | –
C=CCSSCCC(=O)NC1c2cc(C(C)C)c(O)c(O)c2C23CCCC(C)(C)C2C1OC3=O (centres unmarked) [Compound 32, N-[3-(allyldisulfanyl)propanoyl]rosmaricine] | – | 2.3 ± 0.4 µM | 23.9 ± 0.4% | > 30 µM | 3.5 ± 2.8 µM | 37 ± 0.8 µM | 99.5% | 206.9 to 209.2 °C | 13 ± 0.7 µM | – | – | – | 19 fold | 6 | 21.2 µM | confirmed, even at lower level | – | – | –
CC(C)c1cc2c(c(O)c1O)C13CCCC(C)(C)C1C(OC3=O)C2NC(=O)c1ccc(-c2cssc2=S)cc1 (centres unmarked) [Compound 33, N-[4-(3-thioxo-3H-1,2-dithiol-4-yl)benzoyl]rosmaricine] | – | 2.9 ± 0.2 µM | 58.8 ± 5.9% | 19.7 ± 4 µM | 65.4 ± 3.9 µM | > 100 µM | 94.5 ± 0.4% | 243.2 to 249.7 °C | 73 ± 13.2 µM | – | – | – | – | – | – | – | – | – | –
CCCC(CCC)C(=O)OCCSS(C)(=O)=O [a, 2-((methylsulfonyl)thio)ethyl 2-propylpentanoate] | – | – | – | – | – | – | – | – | – | – | – | – | – | – | – | – | good antiproliferative activity in micromolar concentrations | 0.7 µM | inhibited the growth of PC3 in subcutaneous xenografts

From paper PMC6009881, “New sulfurated derivatives of cinnamic acids and rosmaricine as inhibitors of STAT3 and NF-κB transcription factors” (Journal of Enzyme Inhibition and Medicinal Chemistry, 2017)
